The record followed here is patent US20090018134A1, “Compounds - 945” (AstraZeneca AB, priority 2007, published 2009).

Read-outs that look alike come from different tables or passages of the source.

The target in this experiment is T1, mTOR (Homo sapiens, UniProt P42345).
T1 construct: FLAG; made in house
Kind of experiment: In Vitro mTOR Kinase Assay (Echo), Test (a)(ii). Type of experiment: biochemical. In a few lines: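 Enzyme: HEK293-expressed, FLAG-purified mTOR C-terminal fragment (aa 1362-2549). Rxn 2 h RT with biotinylated peptide, stopped with EDTA 50 mM/BSA/Tris pH 7.4. Detection: T389 phospho-antibody AlphaScreen, 680 nm excitation. IC50.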

The mark [1] stands for this setting: table of enzyme assay Test (a)(ii), read-out: Test (a)(ii) IC50.

T1 sequence (P42345 1362-2549): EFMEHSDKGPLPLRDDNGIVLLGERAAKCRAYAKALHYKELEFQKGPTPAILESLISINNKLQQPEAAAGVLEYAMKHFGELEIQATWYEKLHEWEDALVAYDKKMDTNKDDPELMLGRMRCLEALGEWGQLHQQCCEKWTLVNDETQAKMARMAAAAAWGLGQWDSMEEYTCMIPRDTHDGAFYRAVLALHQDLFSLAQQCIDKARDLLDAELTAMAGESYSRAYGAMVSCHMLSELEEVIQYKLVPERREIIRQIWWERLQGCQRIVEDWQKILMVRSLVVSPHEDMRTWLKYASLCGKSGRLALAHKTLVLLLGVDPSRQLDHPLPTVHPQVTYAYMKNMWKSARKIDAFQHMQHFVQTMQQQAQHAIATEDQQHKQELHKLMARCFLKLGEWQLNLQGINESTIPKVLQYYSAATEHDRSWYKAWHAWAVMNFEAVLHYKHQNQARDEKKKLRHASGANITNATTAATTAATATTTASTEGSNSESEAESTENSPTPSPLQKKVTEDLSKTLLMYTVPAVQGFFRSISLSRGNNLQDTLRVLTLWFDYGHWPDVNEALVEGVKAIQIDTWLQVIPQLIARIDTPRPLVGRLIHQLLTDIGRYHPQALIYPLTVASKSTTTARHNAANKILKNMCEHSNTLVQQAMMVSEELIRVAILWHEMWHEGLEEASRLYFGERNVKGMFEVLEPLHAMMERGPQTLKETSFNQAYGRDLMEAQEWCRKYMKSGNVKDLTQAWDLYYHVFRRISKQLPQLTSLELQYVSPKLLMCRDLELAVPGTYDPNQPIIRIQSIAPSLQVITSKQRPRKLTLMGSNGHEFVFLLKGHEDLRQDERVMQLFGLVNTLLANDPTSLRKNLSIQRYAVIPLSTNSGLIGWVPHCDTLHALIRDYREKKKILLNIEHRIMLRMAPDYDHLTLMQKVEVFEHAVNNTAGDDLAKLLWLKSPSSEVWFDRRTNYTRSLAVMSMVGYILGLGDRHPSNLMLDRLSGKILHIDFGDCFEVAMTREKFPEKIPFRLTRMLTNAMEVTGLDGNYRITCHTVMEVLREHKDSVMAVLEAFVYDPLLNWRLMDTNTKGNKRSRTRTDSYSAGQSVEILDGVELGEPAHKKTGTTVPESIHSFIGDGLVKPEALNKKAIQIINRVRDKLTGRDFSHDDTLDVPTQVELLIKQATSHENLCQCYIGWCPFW

Turning to `Cc1nc(S(=O)(=O)C2(c3cc(N4CCOC[C@@H]4C)nc(-c4ccc(NC(=O)NCCO)cc4)n3)CC2)sc1C` [Example 80c, 1-[4-[4-[1-[(4,5-dimethyl-1,3-thiazol-2-yl)sulfonyl]cyclopropyl]-6-[(3S)-3-methylmorpholin-4-yl]pyrimidin-2-yl]phenyl]-3-(2-hydroxyethyl)urea], under setting [1], the IC50 was found to be 9.21 nM.

Take `CNC(=O)Nc1ccc(-c2nc(N3CCOC[C@@H]3C)cc(C3(S(=O)(=O)c4nc(C)c(C)s4)CC3)n2)cc1` [Example 80d, 1-[4-[4-[1-[(4,5-dimethyl-1,3-thiazol-2-yl)sulfonyl]cyclopropyl]-6-[(3S)-3-methylmorpholin-4-yl]pyrimidin-2-yl]phenyl]-3-methylurea]: under setting [1], the IC50 is 9.51 nM.

On to `CCNC(=O)Nc1ccc(-c2nc(N3CCOC[C@@H]3C)cc(C3(S(=O)(=O)c4nc(C)c(C)s4)CC3)n2)cc1` [Example 80e, 3-[4-[4-[1-[(4,5-dimethyl-1,3-thiazol-2-yl)sulfonyl]cyclopropyl]-6-[(3S)-3-methylmorpholin-4-yl]pyrimidin-2-yl]phenyl]-1-ethylurea], for which, under setting [1], the IC50 is 14.3 nM.

As to `Cc1nc(S(=O)(=O)C2(c3cc(N4CCOC[C@@H]4C)nc(-c4ccc(NC(=O)Nc5cnn(C)c5)cc4)n3)CC2)sc1C` [Example 81, 1-[4-[4-[1-[(4,5-Dimethyl-1,3-thiazol-2-yl)sulfonyl]cyclopropyl]-6-[(3S)-3-methylmorpholin-4-yl]pyrimidin-2-yl]phenyl]-3-(1-methylpyrazol-4-yl)urea], the IC50 is, setting by setting: (read-out: mTOR Kinase Assay (Echo)) 8.13 nM; under setting [1], 13.7 nM.

As for `CNC(=O)Nc1ccc(-c2nc(N3CCOC[C@@H]3C)cc(C3(S(=O)(=O)c4ccc(F)cc4C)CC3)n2)cc1` [Example 82, 1-[4-[4-[1-(4-Fluoro-2-methylphenyl)sulfonylcyclopropyl]-6-[(3S)-3-methylmorpholin-4-yl]pyrimidin-2-yl]phenyl]-3-methylurea], under setting [1], the IC50 stood at 9.39 nM.

On to `Cc1cc(F)ccc1S(=O)(=O)C1(c2cc(N3CCOC[C@@H]3C)nc(-c3ccc(NC(=O)NC4CC4)cc3)n2)CC1` [Example 82a, 3-cyclopropyl-1-[4-[4-[1-(4-fluoro-2-methylphenyl)sulfonylcyclopropyl]-6-[(3S)-3-methylmorpholin-4-yl]pyrimidin-2-yl]phenyl]urea], for which the IC50 under setting [1] was determined as 26.5 nM.

`Cc1cc(F)ccc1S(=O)(=O)C1(c2cc(N3CCOC[C@@H]3C)nc(-c3ccc(NC(=O)NCCO)cc3)n2)CC1` [Example 82b, 1-[4-[4-[1-(4-fluoro-2-methylphenyl)sulfonylcyclopropyl]-6-[(3S)-3-methylmorpholin-4-yl]pyrimidin-2-yl]phenyl]-3-(2-hydroxyethyl)urea]: the IC50 under setting [1] amounted to 7.57 nM.

As to `Cc1cc(F)ccc1S(=O)(=O)C1(c2cc(N3CCOC[C@@H]3C)nc(-c3ccc(NC(=O)NCCF)cc3)n2)CC1` [Example 82c, 3-(2-fluoroethyl)-1-[4-[4-[1-(4-fluoro-2-methylphenyl)sulfonylcyclopropyl]-6-[(3S)-3-methylmorpholin-4-yl]pyrimidin-2-yl]phenyl]urea], the IC50 under setting [1] was 18.5 nM.

On to `Cc1cc(F)ccc1S(=O)(=O)C1(c2cc(N3CCOC[C@@H]3C)nc(-c3ccc(NC(=O)NCC(F)F)cc3)n2)CC1` [Example 82d, 3-(2,2-difluoroethyl)-1-[4-[4-[1-(4-fluoro-2-methylphenyl)sulfonylcyclopropyl]-6-[(3S)-3-methylmorpholin-4-yl]pyrimidin-2-yl]phenyl]urea], for which the IC50 under setting [1] was determined as 24.3 nM.

With `CCNC(=O)Nc1ccc(-c2nc(N3CCOC[C@@H]3C)cc(C3(S(=O)(=O)c4ccc(F)cc4C)CC3)n2)cc1` [Example 82e, 3-ethyl-1-[4-[4-[1-(4-fluoro-2-methylphenyl)sulfonylcyclopropyl]-6-[(3S)-3-methylmorpholin-4-yl]pyrimidin-2-yl]phenyl]urea], the IC50 under setting [1] was determined as 20.8 nM.

Take `Cc1cc(F)ccc1S(=O)(=O)C1(c2cc(N3CCOC[C@@H]3C)nc(-c3ccc(NC(=O)Nc4cnn(C)c4)cc3)n2)CC1` [Example 82f, 1-[4-[4-[1-(4-fluoro-2-methylphenyl)sulfonylcyclopropyl]-6-[(3S)-3-methylmorpholin-4-yl]pyrimidin-2-yl]phenyl]-3-(1-methylpyrazol-4-yl)urea]: the IC50 under setting [1] came to 27.3 nM.

Regarding `C[C@H]1COCCN1c1cc(C2(S(=O)(=O)c3ccncc3)CCC2)nc(-c2ccc(NC(=O)NCCO)cc2)n1` [Example 83, 3-(2-Hydroxyethyl)-1-[4-[4-[(3S)-3-methylmorpholin-4-yl]-6-(1-pyridin-4-ylsulfonylcyclobutyl)pyrimidin-2-yl]phenyl]urea], under setting [1], the IC50 amounted to 3.46 nM.

For `C[C@@H](CO)NC(=O)Nc1ccc(-c2nc(N3CCOC[C@@H]3C)cc(C3(S(=O)(=O)c4ccncc4)CCC3)n2)cc1` [Example 83a, 3-[(2S)-1-hydroxypropan-2-yl]-1-[4-[4-[(3S)-3-methylmorpholin-4-yl]-6-(1-pyridin-4-ylsulfonylcyclobutyl)pyrimidin-2-yl]phenyl]urea], the IC50 under setting [1] turned out to be 4.83 nM.

As to `C[C@H](CO)NC(=O)Nc1ccc(-c2nc(N3CCOC[C@@H]3C)cc(C3(S(=O)(=O)c4ccncc4)CCC3)n2)cc1` [Example 83b, 3-[(2R)-1-hydroxypropan-2-yl]-1-[4-[4-[(3S)-3-methylmorpholin-4-yl]-6-(1-pyridin-4-ylsulfonylcyclobutyl)pyrimidin-2-yl]phenyl]urea], the IC50 under setting [1] stood at 11.4 nM.

In the case of `C[C@H]1COCCN1c1cc(C2(S(=O)(=O)c3ccncc3)CCC2)nc(-c2ccc(NC(=O)NC(C)(C)CO)cc2)n1` [Example 83c, 3-(1-hydroxy-2-methylpropan-2-yl)-1-[4-[4-[(3S)-3-methylmorpholin-4-yl]-6-(1-pyridin-4-ylsulfonylcyclobutyl)pyrimidin-2-yl]phenyl]urea], under setting [1], the IC50 is 12.4 nM.

Turning to `C[C@H]1COCCN1c1cc(C2(S(=O)(=O)c3ccncc3)CCC2)nc(-c2ccc(NC(=O)NCc3ncc[nH]3)cc2)n1` [Example 83d, 3-(1H-imidazol-2-ylmethyl)-1-[4-[4-[(3S)-3-methylmorpholin-4-yl]-6-(1-pyridin-4-ylsulfonylcyclobutyl)pyrimidin-2-yl]phenyl]urea], the IC50 under setting [1] is 47.2 nM.

`CC[C@H]1COCCN1c1cc(C2(S(C)(=O)=O)CC2)nc(-c2ccc(NC(=O)NC)cc2)n1` [Example 84, 1-[4-[4-[(3S)-3-Ethylmorpholin-4-yl]-6-(1-methylsulfonylcyclopropyl)pyrimidin-2-yl]phenyl]-3-methylurea]: the IC50 under setting [1] was determined as 9.56 nM.

Turning to `CC[C@H]1COCCN1c1cc(C2(S(C)(=O)=O)CC2)nc(-c2ccc(NC(=O)NC3CC3)cc2)n1` [Example 84a, 3-cyclopropyl-1-[4-[4-[(3S)-3-ethylmorpholin-4-yl]-6-(1-methylsulfonylcyclopropyl)pyrimidin-2-yl]phenyl]urea], the IC50 under setting [1] is 9.09 nM.

Take `CC[C@H]1COCCN1c1cc(C2(S(C)(=O)=O)CC2)nc(-c2ccc(NC(=O)NCCO)cc2)n1` [Example 84b, 1-[4-[4-[(3S)-3-ethylmorpholin-4-yl]-6-(1-methylsulfonylcyclopropyl)pyrimidin-2-yl]phenyl]-3-(2-hydroxyethyl)urea]: the IC50 under setting [1] amounted to 3.85 nM.

Regarding `CC[C@H]1COCCN1c1cc(C2(S(C)(=O)=O)CC2)nc(-c2ccc(NC(=O)NCCF)cc2)n1` [Example 84c, 1-[4-[4-[(3S)-3-ethylmorpholin-4-yl]-6-(1-methylsulfonylcyclopropyl)pyrimidin-2-yl]phenyl]-3-(2-fluoroethyl)urea], the IC50 under setting [1] was 8.29 nM.

Turning to `CC[C@H]1COCCN1c1cc(C2(S(C)(=O)=O)CC2)nc(-c2ccc(NC(=O)NCC(F)F)cc2)n1` [Example 84d, 3-(2,2-difluoroethyl)-1-[4-[4-[(3S)-3-ethylmorpholin-4-yl]-6-(1-methylsulfonylcyclopropyl)pyrimidin-2-yl]phenyl]urea], the IC50 under setting [1] stood at 9.59 nM.

As for `CCNC(=O)Nc1ccc(-c2nc(N3CCOC[C@@H]3CC)cc(C3(S(C)(=O)=O)CC3)n2)cc1` [Example 84e, 3-ethyl-1-[4-[4-[(3S)-3-ethylmorpholin-4-yl]-6-(1-methylsulfonylcyclopropyl)pyrimidin-2-yl]phenyl]urea], the IC50 under setting [1] came to 8.18 nM.

For the compound `CC[C@H]1COCCN1c1cc(C2(S(C)(=O)=O)CC2)nc(-c2ccc(NC(=O)Nc3cnn(C)c3)cc2)n1` [Example 84f, 1-[4-[4-[(3S)-3-ethylmorpholin-4-yl]-6-(1-methylsulfonylcyclopropyl)pyrimidin-2-yl]phenyl]-3-(1-methylpyrazol-4-yl)urea], the IC50 under setting [1] came out at 13.4 nM.

For the compound `CNC(=O)Nc1ccc(-c2nc(N3CCOC[C@@H]3C)cc(C3(S(=O)(=O)c4ccc(C(N)=O)cc4Cl)CC3)n2)cc1` [Example 85, 3-Chloro-4-[1-[2-[4-(methylcarbamoylamino)phenyl]-6-[(3S)-3-methylmorpholin-4-yl]pyrimidin-4-yl]cyclopropyl]sulfonylbenzamide], the IC50 under setting [1] was found to be 4.77 nM.

As for `CCNC(=O)Nc1ccc(-c2nc(N3CCOC[C@@H]3C)cc(C3(S(=O)(=O)c4ccc(C(N)=O)cc4Cl)CC3)n2)cc1` [Example 85a, 3-chloro-4-[1-[2-[4-(ethylcarbamoylamino)phenyl]-6-[(3S)-3-methylmorpholin-4-yl]pyrimidin-4-yl]cyclopropyl]sulfonylbenzamide], under setting [1], the IC50 was determined as 3.13 nM.

For the compound `C[C@H]1COCCN1c1cc(C2(S(=O)(=O)c3ccc(C(N)=O)cc3Cl)CC2)nc(-c2ccc(NC(=O)NC3CC3)cc2)n1` [Example 85b, 3-chloro-4-[1-[2-[4-(cyclopropylcarbamoylamino)phenyl]-6-[(3S)-3-methylmorpholin-4-yl]pyrimidin-4-yl]cyclopropyl]sulfonylbenzamide], under setting [1], the IC50 is 5.26 nM.

For the compound `C[C@H]1COCCN1c1cc(C2(S(=O)(=O)c3ccc(C(N)=O)cc3Cl)CC2)nc(-c2ccc(NC(=O)NCCF)cc2)n1` [Example 85c, 3-chloro-4-[1-[2-[4-(2-fluoroethylcarbamoylamino)phenyl]-6-[(3S)-3-methylmorpholin-4-yl]pyrimidin-4-yl]cyclopropyl]sulfonylbenzamide], the IC50 under setting [1] is 5.09 nM.
